Experimental data published in patent publication US6586413B2, “Methods and compositions for reducing ischemic injury of the heart by administering adenosine receptor agonists and antagonists” (The United States of America as represented by the …, priority 1999, dated 2003).

Assays:
[1] = test system: ventricular myocytes cultured from chick embryos; assay: Pharmacological preconditioning: 5 min exposure to agent, then 90 min simulated ischemia; assay type: cell-based; conditions: for preconditioning / cardioprotective effect: agent alone, 5 min exposure before 90 min ischemia; for maximal protection compared with full agonist: partial agonist vs full agonist (CCPA or Cl-IB-MECA); for effect of high concentration of partial agonist on protection by full agonist: with full agonist CCPA or Cl-IB-MECA
Description: FIG. 14 is a graph showing that the partial A1 receptor agonist, 8-butylaminoCPA, mimics the cardioprotective effect of ischemic preconditioning. Ventricular myocytes were cultured from chick embryos 14 days in ovo. The ability of the partial A1 agonist, 8-butylaminoCPA (8-butylamino-N^6-cyclopentyladenosine), to induce preconditioning was determined. In brief, myocytes were exposed to 8-butylaminoCPA at the indicated concentrations for 5 min, incubated for 10 min with agonist-free medium, and then exposed to simulated ischemia for 90 min. The extent of myocyte injury was quantitated at the end of the 90 min period by determinating the percentage of cells killed and the amount of creatine kinase (CK) released (units per milligram of cell protein). Data are means±SE of values from five independent experiments.
Determination of myocyte injury was made at the end of the ninety-minute hypoxia, at which time myocytes were taken out of the hypoxic incubator and re-exposed to room air (normal % O2). Aliquots of the media were then obtained for creatine kinase (CK) activity measurement, which is followed by quantitation of the number of viable cells. Measurement of basal level of cell injury was made after parallel incubation of control cells under normal % O2. The extent of hypoxia-induced injury to the ventricular cell was quantitatively determined by the percentages of cells killed and by the amount of CK released into the media according to a previously described method (16, 23). […] In brief, the media were replaced with a trypsin-EDTA buffer to detach the cells, which was then followed by sedimentation of the viable myocytes. Parallel changes in % cells killed and CK released (16, 23) further validated this assay for % cells killed. The amount of CK was measured as enzyme activity (unit/mg), and increases in CK activity above the control level were determined. The percentage of cells killed was calculated as the number of cells obtained from the control group (representing cells not subjected to any hypoxia or drug treatment) minus the number of cells from the treatment group divided by number of cells in control group multiplied by 100%.
Media were then replaced with fresh media, which was then followed by exposure to 90-minute simulated ischemia and the data graphed.

diacylglycerol level = assay: Diacylglycerol (DAG) accumulation in [3H]myristate-labeled ventricular myocytes; assay type: cell-based, chick; conditions: 1 μM 8-butylaminoCPA or 10 nM MRS1760 for 5 min
Description: FIGS. 15A and 15B show the coupling of the partial A1 and A3 receptor agonists to stimulation of DAG accumulation and the differential inhibitory effects of the phospholipase C inhibitor U-73122 on the cardioprotection caused by 8-butylaminoCPA or by MRS1760, respectively. FIG. 15A: Ventricular myocytes were labeled with [^3H]myristate (Dupont, 49 Ci/mmol, […]) for 24 hours, exposed to 1 μM of 8-butylaminoCPA or 10 nM MRS1760 for 5 min, and the amount of DAG was determined by thin-layer chromatography. Data are expressed as the percentage increase in the amount of DAG relative to that for unstimulated cells, and are means±SE of values from five independent experiments. FIG. 15B: Effects of U-73122 on cardioprotection induced by 8-butylaminoCPA or by MRS1760 were determined. U-73122 (10 μM) was either included or not during the 5 min exposure of ventricular myocytes to 1 μM 8-butylaminoCPA or 10 nM MRS1760, and cardiac injury was assessed after ischemia as described herein below. […]
Quantitation of diacylglycerol (DAG) and measurement of phospholipase D (PLD) activity were carried out as previously described (35, 36). The formation of [^3H] phosphotidylethanol (PEt) during agonist exposure in media containing 0.5% (v/v) ethanol was determined by scintillation counting following its separation from other phospholipids on thin layer chromatography as described (36). […]

phospholipase C = assay: Phospholipase C activity in cardiac myocytes; assay type: cell-based, chick
Description: To further test this notion, the ability of 8-butylaminoCPA to stimulate phospholipase C as measured by […] formation, a downstream signaling molecule that mediates the cardioprotective effect of adenosine A1 receptor was determined.

phospholipase D = assay: Phospholipase D activity ([3H]phosphatidylethanol formation); assay type: cell-based, chick
Description: Quantitation of diacylglycerol (DAG) and measurement of phospholipase D (PLD) activity were carried out as previously described (35, 36). The formation of [^3H] phosphotidylethanol (PEt) during agonist exposure in media containing 0.5% (v/v) ethanol was determined by scintillation counting following its separation from other phospholipids on thin layer chromatography as described (36). The level of [^3H] PEt represents an index of the PLD activity. The position of DAG or PEt was determined by immersing the thin layer plate in an iodine chamber and their levels were expressed as a percentage of total lipids. Data were expressed as the percentage increase in the amount of DAG or PEt relative to that for unstimulated cells.

Row | SMILES | preconditioning / cardioprotective effect [1] | maximal protection compared with full agonist [1] | effect of high concentration of partial agonist on protection by full agonist [1] | diacylglycerol level (diacylglycerol level) | PLC activity (phospholipase C) | PLD activity (phospholipase D)
1 | CCCCNc1nc2c(NC3CCCC3)ncnc2n1[C@@H]1O[C@H](CO)[C@@H](O)[C@H]1O [8-butylaminoCPA, 8-butylamino-N^6-cyclopentyladenosine] | able to induce a marked cardioprotective effect | less than that produced by the full agonist CCPA | able to antagonize the protection caused by the full agonist CCPA | an increase in the diacylglycerol level | able to stimulate PLC activity | 
2 | OC[C@@]12C[C@@H]1[C@@H](n1cnc3c(NCc4cccc(I)c4)nc(Cl)nc31)[C@H](O)[C@@H]2O [MRS1760, (1′R,2′R,3′S,4′R,5′S)-4-{2-Chloro-6-[(3-iodophenylmethyl)amino]purin-9-yl}-1-(hydroxymethyl)bicyclo[3.1.0]-hexane-2,3-diol] | able to induce a marked protective effect against ischemia | less than the maximal effect caused by Cl-IB-MECA | blocked the protection induced by the full agonist Cl-IB-MECA | an increase in the diacylglycerol level |  | able to stimulate PLD activity
